From patent publication US20260053811A1, “METHODS OF TREATING HYPERTENSION IN OBESE SUBJECTS” (Mineralys Therapeutics, Inc., priority 2022, published 2026)

Legend:
Format in all cases: in vivo, human
serum aldosterone = assay: Serum aldosterone (pharmacodynamic response); details: for Reduction in median serum aldosterone compared to baseline: week 4, low renin subjects (Part-1); for Aldosterone levels, change relative to baseline, range across active arms / Aldosterone, Mean (SD) Observed / Aldosterone, Mean (SD) Percent Change from Baseline: Part 1; for Aldosterone, Mean Observed / Aldosterone, Mean Percent Change from Baseline: Part 2
Description: (§1) PK/PD Analysis Set includes all subjects in the SAF who have sufficient data available for the analysis of pharmacokinetic and pharmacodynamic measurements. In the analyses based on PKPD, subjects will be analyzed according to the actual treatment received.

hypertensive subjects = assay: ACTH stimulation testing / adrenocortical insufficiency
Method: 11-deoxycorticosterone levels were unaffected. […] Due to supply chain disruption, the ability to perform ACTH stimulation testing was limited during the first part of the trial. However, the majority of subjects in Part 2 dosed with 100 mg QD, the maximum dose tested, had ACTH-stimulation testing performed at Baseline and after 8 weeks of treatment.

plasma renin activity = assay: Plasma renin activity (PRA) (pharmacodynamic response); details: for Renin Activity, Mean (SD) Observed / Renin Activity, Mean (SD) Percent Change from Baseline: Part 1; for Renin Activity, Mean Observed / Renin Activity, Mean Percent Change from Baseline: Part 2
Description: as §1

11-deoxycortisol = assay: Plasma 11-deoxycortisol (pharmacodynamic response); details: Part 1, Wk 4
Description: as §1

CC(=O)N[C@H]1CC[C@H](NC(=O)CN2CCN(c3nncc(-c4ccc(C)cc4)n3)CC2)CC1 [Compound A HBr]
Reduction in median serum aldosterone compared to baseline (serum aldosterone; 25 mg BID): 9.6% | Reduction in median serum aldosterone compared to baseline (serum aldosterone; 50 mg QD): 65.2% | Reduction in median serum aldosterone compared to baseline (serum aldosterone; 100 mg QD): 70.0% | Aldosterone levels, change relative to baseline, range across active arms (serum aldosterone; Week 4): −40.1% to 7.4% | Aldosterone levels, change relative to baseline, range across active arms (serum aldosterone; Week 12): −26.6% to 15.9% | Aldosterone, Mean (SD) Observed (serum aldosterone; Wk 4, 12.5 mg BID): 4.447 (3.681) ng/dL | Aldosterone, Mean (SD) Percent Change from Baseline (serum aldosterone; Wk 4, 12.5 mg BID): −37.86 (35.66) % | Aldosterone, Mean (SD) Observed (serum aldosterone; Wk 4, 12.5 mg QD): 6.132 (4.606) ng/dL | Aldosterone, Mean (SD) Percent Change from Baseline (serum aldosterone; Wk 4, 12.5 mg QD): 7.39 (91.87) % | Aldosterone, Mean (SD) Observed (serum aldosterone; Wk 4, 25 mg BID): 3.192 (3.274) ng/dL | Aldosterone, Mean (SD) Percent Change from Baseline (serum aldosterone; Wk 4, 25 mg BID): 1.66 (233.60) % | Aldosterone, Mean (SD) Observed (serum aldosterone; Wk 4, 50 mg QD): 3.923 (5.283) ng/dL | Aldosterone, Mean (SD) Percent Change from Baseline (serum aldosterone; Wk 4, 50 mg QD): −40.06 (70.25) % | Aldosterone, Mean (SD) Observed (serum aldosterone; Wk 4, 100 mg QD): 4.000 (4.252) ng/dL | Aldosterone, Mean (SD) Percent Change from Baseline (serum aldosterone; Wk 4, 100 mg QD): −32.18 (75.13) % | Aldosterone, Mean (SD) Observed (serum aldosterone; Wk 12, 12.5 mg BID): 6.765 (4.085) ng/dL | Aldosterone, Mean (SD) Percent Change from Baseline (serum aldosterone; Wk 12, 12.5 mg BID): 1.97 (66.85) % | Aldosterone, Mean (SD) Observed (serum aldosterone; Wk 12, 12.5 mg QD): 6.833 (4.743) ng/dL | Aldosterone, Mean (SD) Percent Change from Baseline (serum aldosterone; Wk 12, 12.5 mg QD): 15.91 (67.68) % | Aldosterone, Mean (SD) Observed (serum aldosterone; Wk 12, 25 mg BID): 4.983 (3.432) ng/dL | Aldosterone, Mean (SD) Percent Change from Baseline (serum aldosterone; Wk 12, 25 mg BID): −10.10 (66.83) % | Aldosterone, Mean (SD) Observed (serum aldosterone; Wk 12, 50 mg QD): 5.385 (4.087) ng/dL | Aldosterone, Mean (SD) Percent Change from Baseline (serum aldosterone; Wk 12, 50 mg QD): −3.75 (56.02) % | Aldosterone, Mean (SD) Observed (serum aldosterone; Wk 12, 100 mg QD): 4.563 (2.868) ng/dL | Aldosterone, Mean (SD) Percent Change from Baseline (serum aldosterone; Wk 12, 100 mg QD): −26.56 (37.55) % | Aldosterone, Mean Observed (serum aldosterone; Wk 4, 100 mg QD): 5.060 ng/dL | Aldosterone, Mean Percent Change from Baseline (serum aldosterone; Wk 4, 100 mg QD): −6.05% | Aldosterone, Mean Observed (serum aldosterone; Wk 10, 100 mg QD): 4.929 ng/dL | Aldosterone, Mean Percent Change from Baseline (serum aldosterone; Wk 10, 100 mg QD): −4.06% | Serum aldosterone levels, pharmacodynamic response (serum aldosterone; across doses): dose-dependent reduction in serum aldosterone levels | Adrenocortical insufficiency (hypertensive subjects; during the trial, listed as lorundrostat): no adrenocortical insufficiency occurred | ACTH-stimulation results (hypertensive subjects; majority of Part 2 subjects, 100 mg QD, Baseline and after 8 weeks): no individuals with abnormal ACTH-stimulation results | Renin Activity, Mean (SD) Observed (plasma renin activity; Wk 4, 12.5 mg BID): 5.989 (11.272) μg/L/hr | Renin Activity, Mean (SD) Percent Change from Baseline (plasma renin activity; Wk 4, 12.5 mg BID): 838.89 (2411.4) % | Renin Activity, Mean (SD) Observed (plasma renin activity; Wk 4, 12.5 mg QD): 1.804 (3.565) μg/L/hr | Renin Activity, Mean (SD) Percent Change from Baseline (plasma renin activity; Wk 4, 12.5 mg QD): 85.09 (291.65) % | Renin Activity, Mean (SD) Observed (plasma renin activity; Wk 4, 25 mg BID): 2.860 (4.219) μg/L/hr | Renin Activity, Mean (SD) Percent Change from Baseline (plasma renin activity; Wk 4, 25 mg BID): 344.07 (480.75) % | Renin Activity, Mean (SD) Observed (plasma renin activity; Wk 4, 50 mg QD): 3.940 (9.162) μg/L/hr | Renin Activity, Mean (SD) Percent Change from Baseline (plasma renin activity; Wk 4, 50 mg QD): 359.69 (888.86) % | Renin Activity, Mean (SD) Observed (plasma renin activity; Wk 4, 100 mg QD): 3.870 (6.308) μg/L/hr | Renin Activity, Mean (SD) Percent Change from Baseline (plasma renin activity; Wk 4, 100 mg QD): 489.18 (974.60) % | Renin Activity, Mean (SD) Observed (plasma renin activity; Wk 12, 12.5 mg BID): 5.118 (11.751) μg/L/hr | Renin Activity, Mean (SD) Percent Change from Baseline (plasma renin activity; Wk 12, 12.5 mg BID): 212.37 (402.15) % | Renin Activity, Mean (SD) Observed (plasma renin activity; Wk 12, 12.5 mg QD): 2.429 (5.048) μg/L/hr | Renin Activity, Mean (SD) Percent Change from Baseline (plasma renin activity; Wk 12, 12.5 mg QD): 137.45 (279.23) % | Renin Activity, Mean (SD) Observed (plasma renin activity; Wk 12, 25 mg BID): 2.898 (8.323) μg/L/hr | Renin Activity, Mean (SD) Percent Change from Baseline (plasma renin activity; Wk 12, 25 mg BID): 198.91 (423.17) % | Renin Activity, Mean (SD) Observed (plasma renin activity; Wk 12, 50 mg QD): 3.374 (7.008) μg/L/hr | Renin Activity, Mean (SD) Percent Change from Baseline (plasma renin activity; Wk 12, 50 mg QD): 400.07 (808.60) % | Renin Activity, Mean (SD) Observed (plasma renin activity; Wk 12, 100 mg QD): 1.653 (2.830) μg/L/hr | Renin Activity, Mean (SD) Percent Change from Baseline (plasma renin activity; Wk 12, 100 mg QD): 94.66 (221.58) % | Renin Activity, Mean Observed (plasma renin activity; Wk 4, 100 mg QD): 12.642 µg/L/h | Renin Activity, Mean Percent Change from Baseline (plasma renin activity; Wk 4, 100 mg QD): 811.54% | Renin Activity, Mean Observed (plasma renin activity; Wk 10, 100 mg QD): 7.602 µg/L/h | Renin Activity, Mean Percent Change from Baseline (plasma renin activity; Wk 10, 100 mg QD): 192.62% | Plasma renin activity, pharmacodynamic response (plasma renin activity; across doses): commensurate increase in plasma renin activity | Renin activity, percent change from baseline (plasma renin activity; irrespective of dose and baseline PRA, highest at Week 4): increased in all subjects treated with lorundrostat | 11-Deoxycortisol, Mean (SD) Observed (11-deoxycortisol; 12.5 mg BID): 24.89 (18.99) ng/dL | 11-Deoxycortisol, Mean (SD) Percent Change from Baseline (11-deoxycortisol; 12.5 mg BID): 22.56 (118.56) % | 11-Deoxycortisol, Mean (SD) Observed (11-deoxycortisol; 12.5 mg QD): 24.21 (19.92) ng/dL | 11-Deoxycortisol, Mean (SD) Percent Change from Baseline (11-deoxycortisol; 12.5 mg QD): 10.07 (76.22) % | 11-Deoxycortisol, Mean (SD) Observed (11-deoxycortisol; 25 mg BID): 35.23 (33.00) ng/dL | 11-Deoxycortisol, Mean (SD) Percent Change from Baseline (11-deoxycortisol; 25 mg BID): 40.12 (118.32) %
